Data reported in patent US20240199546A1, “INHIBITORS OF SOLUTE CARRIER FAMILY 6A MEMBER 19 (SLC6A19) AND METHODS OF USE THEREOF” (Maze Therapeutics, Inc., priority 2022, published 2024).

These compounds were tested against T1, human SLC6A19 and TMEM27 (Homo sapiens, UniProt Q695T7) (assay: Radiolabelled (3H) leucine uptake in CHO cells with doxycycline-inducible expression of human SLC6A19 and TMEM27 (Example B-1)). Conditions: CHO cells with doxycycline-inducible expression of human SLC6A19 and TMEM27, read-out: SLC6A19_Radioligand Uptake Assay IC50.
T1 construct: expressed in transfected cells
T1 sequence (Q695T7 1-634): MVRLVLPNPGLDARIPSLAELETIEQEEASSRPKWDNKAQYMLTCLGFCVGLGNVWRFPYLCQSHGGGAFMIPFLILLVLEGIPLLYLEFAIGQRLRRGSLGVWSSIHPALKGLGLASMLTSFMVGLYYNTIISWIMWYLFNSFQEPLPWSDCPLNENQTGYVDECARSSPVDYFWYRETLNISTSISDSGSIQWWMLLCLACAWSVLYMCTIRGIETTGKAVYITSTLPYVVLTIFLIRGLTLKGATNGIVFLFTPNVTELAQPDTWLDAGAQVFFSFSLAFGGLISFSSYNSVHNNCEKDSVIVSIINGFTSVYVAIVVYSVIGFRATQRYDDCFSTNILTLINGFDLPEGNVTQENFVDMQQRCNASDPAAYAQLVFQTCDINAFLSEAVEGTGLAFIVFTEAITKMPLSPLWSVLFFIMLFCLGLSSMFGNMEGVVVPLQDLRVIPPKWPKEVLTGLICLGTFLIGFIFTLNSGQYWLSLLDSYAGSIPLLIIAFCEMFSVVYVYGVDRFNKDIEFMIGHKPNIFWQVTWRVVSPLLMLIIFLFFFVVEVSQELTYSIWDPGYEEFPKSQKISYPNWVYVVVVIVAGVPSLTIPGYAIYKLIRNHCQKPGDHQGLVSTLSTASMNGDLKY
T1 sequence (Q9HBJ8 15-222 partner): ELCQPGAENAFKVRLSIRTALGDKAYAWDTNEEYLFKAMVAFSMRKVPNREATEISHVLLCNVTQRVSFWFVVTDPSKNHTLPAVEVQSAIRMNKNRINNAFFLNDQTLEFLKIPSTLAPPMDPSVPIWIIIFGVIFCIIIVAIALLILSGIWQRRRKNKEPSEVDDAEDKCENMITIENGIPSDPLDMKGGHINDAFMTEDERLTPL
Format: cell-based
Method in brief: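 CHO cells were induced with doxycycline for 18 h at 37 °C, washed in HBSS, then exposed to compounds for 1 h: 8-point, 3-fold dilutions in duplicate, 0.5% DMSO final. Uptake measured by scintillation counting after 2 h shaking. Activity normalized with positive control as 0% and DMSO as 100%.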

SMILES | IC50
Cc1cc(COc2cc3[nH]c(CNC(=O)C4(C)CC4)cc3cc2OC(F)F)on1 [Compound 606, N-((5-(difluoromethoxy)-6-((3-methylisoxazol-5-yl)methoxy)-1H-indol-2-yl)methyl)-1-methylcyclopropane-1-carboxamide] | 320 nM
COCCOc1cc2[nH]c(CNC(=O)C3(C)CC3)cc2cc1Cl [Compound 333, N-((5-chloro-6-(2-methoxyethoxy)-1H-indol-2-yl)methyl)-1-methylcyclopropane-1-carboxamide] | 206 nM
CC1(C(=O)NCc2cc3cc(Cl)c(OCc4sncc4Cl)cc3[nH]2)CC1 [Compound 325, N-((5-chloro-6-((4-chloroisothiazol-5-yl)methoxy)-1H-indol-2-yl)methyl)-1-methylcyclopropane-1-carboxamide] | 3730 nM
Cc1cc(COc2cc3[nH]c(CNC(=O)CC4CCO4)cc3cc2Cl)on1 (stereo not shown) [Compound 245, N-((5-chloro-6-((3-methylisoxazol-5-yl)methoxy)-1H-indol-2-yl)methyl)-2-(oxetan-2-yl)acetamide] | 1190 nM
Cc1cc(COc2cc3[nH]c(CNC(=O)Cn4ccnn4)cc3cc2Cl)on1 [Compound 520, N-((5-chloro-6-((3-methylisoxazol-5-yl)methoxy)-1H-indol-2-yl)methyl)-2-(1H-1,2,3-triazol-1-yl)acetamide] | 6730 nM
CC(=O)NCc1cc2cc(F)c(OCc3cscn3)cc2[nH]1 [Compound 208, N-((5-fluoro-6-(thiazol-4-ylmethoxy)-1H-indol-2-yl)methyl)acetamide] | 133 nM
CC1(C(=O)NCc2cc3cc(C4CC4(F)F)c(OCc4cscn4)cc3[nH]2)CC1 (stereo not shown) [Compound 657, N-((5-(2,2-difluorocyclopropyl)-6-(thiazol-4-ylmethoxy)-1H-indol-2-yl)methyl)-1-methylcyclopropane-1-carboxamide] | 654 nM
CCc1cc(COc2ccc3cc(CNC(=O)C4(C)CC4)[nH]c3c2)no1 [Compound 185, N-((6-((5-ethylisoxazol-3-yl)methoxy)-1H-indol-2-yl)methyl)-1-methylcyclopropane-1-carboxamide] | 1050 nM
Cc1cc(CNc2cc3[nH]c(CNC(=O)C4(C)CC4)cc3cc2Cl)no1 [Compound 451, N-((5-chloro-6-(((5-methylisoxazol-3-yl)methyl)amino)-1H-indol-2-yl)methyl)-1-methylcyclopropane-1-carboxamide] | 237 nM
O=C(NCc1cc2cc(Cl)c(OCc3cscn3)cc2[nH]1)C1CC12CCC2 (stereo not shown) [Compound 558, N-((5-chloro-6-(thiazol-4-ylmethoxy)-1H-indol-2-yl)methyl)spiro[2.3]hexane-1-carboxamide] | 1030 nM
O=C(NCc1cc2cc(Cl)c(CCc3cscn3)cc2[nH]1)N1CCCC1 [Compound 418, N-((5-chloro-6-(2-(thiazol-4-yl)ethyl)-1H-indol-2-yl)methyl)pyrrolidine-1-carboxamide] | 163 nM
Cc1cc(COc2cc3[nH]c(CNC(=O)[C@H]4C[C@@H]4F)cc3cc2Cl)on1 [Compound 538, (1R,2S)-N-((5-chloro-6-((3-methylisoxazol-5-yl)methoxy)-1H-indol-2-yl)methyl)-2-fluorocyclopropane-1-carboxamide] | 59.4 nM
Cc1cc(COc2cc3[nH]c(CNC(=O)[C@@H]4CCC[C@H]4O)cc3cc2Cl)on1 (racemic) [Compound 534, (1R,2R)-N-((5-chloro-6-((3-methylisoxazol-5-yl)methoxy)-1H-indol-2-yl)methyl)-2-hydroxycyclopentane-1-carboxamide and (1S,2S)-N-((5-chloro-6-((3-methylisoxazol-5-yl)methoxy)-1H-indol-2-yl)methyl)-2-hydroxycyclopentane-1-carboxamide] | 3040 nM
Cc1cc(COc2cc3[nH]c(CNC(=O)C4(F)CCOC4)cc3cc2Cl)on1 (stereo not shown) [Compound 305, N-((5-chloro-6-((3-methylisoxazol-5-yl)methoxy)-1H-indol-2-yl)methyl)-3-fluorotetrahydrofuran-3-carboxamide] | 209 nM
CC1(C(=O)NCc2cc3cc(CC#N)c(OCc4ccon4)cc3[nH]2)CC1 [Compound 644, N-((5-(cyanomethyl)-6-(isoxazol-3-ylmethoxy)-1H-indol-2-yl)methyl)-1-methylcyclopropane-1-carboxamide] | 583 nM
Cc1cc(COc2cc3[nH]c(CNC(=O)[C@@H]4C[C@@H](F)CN4)cc3cc2Cl)on1 [Compound 665, (2S,4R)—N-((5-chloro-6-((3-methylisoxazol-5-yl)methoxy)-1H-indol-2-yl)methyl)-4-fluoropyrrolidine-2-carboxamide] | 1560 nM

SMILES | IC50
Cc1cc(COc2cc3[nH]c(CNC(=O)C[C@@H](C)O)cc3cc2Cl)on1 [Compound 287, (R)-N-((5-chloro-6-((3-methylisoxazol-5-yl)methoxy)-1H-indol-2-yl)methyl)-3-hydroxybutanamide] | 2400 nM
CC[C@H](O)C(=O)NCc1cc2cc(Cl)c(OCc3cc(C)no3)cc2[nH]1 [Compound 240, (S)-N-((5-chloro-6-((3-methylisoxazol-5-yl)methoxy)-1H-indol-2-yl)methyl)-2-hydroxybutanamide] | 490 nM
CO[C@H]1C[C@H](Oc2cc3[nH]c(CNC(C)=O)cc3cc2Cl)C1 [Compound 462, N-((5-chloro-6-((trans)-3-methoxycyclobutoxy)-1H-indol-2-yl)methyl)acetamide] | 2000 nM
Cc1cc(COc2cc3[nH]c(CNC(=O)C(C)(C)O)cc3cc2Cl)on1 [Compound 249, N-((5-chloro-6-((3-methylisoxazol-5-yl)methoxy)-1H-indol-2-yl)methyl)-2-hydroxy-2-methylpropanamide] | 545 nM
Cc1cc(COc2cc3[nH]c(CNC(=O)[C@H]4COCCN4C)cc3cc2Cl)on1 [Compound 302, (R)-N-((5-chloro-6-((3-methylisoxazol-5-yl)methoxy)-1H-indol-2-yl)methyl)-4-methylmorpholine-3-carboxamide] | 7110 nM
O=C(NCc1cc2cc(Cl)c(OCc3cscn3)cc2[nH]1)[C@@H]1CCOC1 [Compound 316, (R)-N-((5-chloro-6-(thiazol-4-ylmethoxy)-1H-indol-2-yl)methyl)tetrahydrofuran-3-carboxamide] | 284 nM
CC1(C(=O)NCc2cc3ccc(OCCC45CC(C4)C5)cc3[nH]2)CC1 [Compound 193, N-((6-(2-(bicyclo[1.1.1]pentan-1-yl)ethoxy)-1H-indol-2-yl)methyl)-1-methylcyclopropane-1-carboxamide] | 9880 nM
O=C(NCc1cc2cc(OC(F)(F)F)c(CCc3cocn3)cc2[nH]1)N1CCCC1 [Compound 468, N-((6-(2-(oxazol-4-yl)ethyl)-5-(trifluoromethoxy)-1H-indol-2-yl)methyl)pyrrolidine-1-carboxamide] | 422 nM
O=C(NCc1cc2cc(F)c(OCc3ccon3)cc2[nH]1)C1(C(F)(F)F)CC1 [Compound 139, N-((5-fluoro-6-(isoxazol-3-ylmethoxy)-1H-indol-2-yl)methyl)-1-(trifluoromethyl)cyclopropane-1-carboxamide] | 310 nM
CC(=O)NCc1cc2cc(Cl)c(OCCOCC(F)F)cc2[nH]1 [Compound 650, N-((5-chloro-6-(2-(2,2-difluoroethoxy)ethoxy)-1H-indol-2-yl)methyl)acetamide] | 1010 nM
O=C(CC(F)(F)F)NCc1cc2cc(F)c(OCc3cscn3)cc2[nH]1 [Compound 568, 3,3,3-trifluoro-N-((5-fluoro-6-(thiazol-4-ylmethoxy)-1H-indol-2-yl)methyl)propanamide] | 337 nM
COCC(=O)NCc1cc2cc(F)c(OCc3cscn3)cc2[nH]1 [Compound 265, N-((5-fluoro-6-(thiazol-4-ylmethoxy)-1H-indol-2-yl)methyl)-2-methoxyacetamide] | 120 nM
CCc1cc2cc(CNC(=O)C3(C)CC3)[nH]c2cc1OCc1cscn1 [Compound 202, N-((5-ethyl-6-(thiazol-4-ylmethoxy)-1H-indol-2-yl)methyl)-1-methylcyclopropane-1-carboxamide] | 1560 nM
CC1(C(=O)NCc2cc3cc(Cl)c(OCc4ccon4)c(F)c3[nH]2)CC1 [Compound 16, N-((5-chloro-7-fluoro-6-(isoxazol-3-ylmethoxy)-1H-indol-2-yl)methyl)-1-methylcyclopropane-1-carboxamide] | 172 nM
CC1(C(=O)NCc2cc3cc(OC(F)(F)F)c(OCc4cscn4)cc3[nH]2)CC1 [Compound 434, 1-methyl-N-((6-(thiazol-4-ylmethoxy)-5-(trifluoromethoxy)-1H-indol-2-yl)methyl)cyclopropane-1-carboxamide] | 263 nM
